Reference: patent publication US20090118135A1, “METHODS AND COMPOUNDS FOR REGULATING APOPTOSIS” (The Burnham Institute, priority 2007, published 2009)
Where two headings read alike, the source gives them in different places.

Target: T1, GST-Bcl-B (Homo sapiens, UniProt Q9HD36)
T1 sequence (Q9HD36 1-182 limits assumed): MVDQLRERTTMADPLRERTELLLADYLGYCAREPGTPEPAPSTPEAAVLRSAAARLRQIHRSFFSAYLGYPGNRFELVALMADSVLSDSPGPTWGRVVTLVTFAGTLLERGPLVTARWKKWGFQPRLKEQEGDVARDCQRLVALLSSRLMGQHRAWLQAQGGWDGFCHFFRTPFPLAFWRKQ
Assay: Bcl-B/FITC-TR3-r8 fluorescence polarization competition (displacement) assay, HTS and dose-response

[1] = Table 8, NCI Structural library, Binding Assay, FP, Concentration 0.02 uM
[2] = read-out: Result Value (Result Type % Inhibition), BCL-b/TR3
[3] = Table 7, NCI Mechanistic library, Binding Assay, FP, Concentration 0.02 uM
[4] = LOPAC1280 library primary screen
[5] = LOPAC1280 library, fluorescence intensity normalized to plate negative controls
[6] = read-out: Result Value (% Inhibition), LOPAC1280 (Sigma-Aldrich) library, BCL-b/TR3 Binding Assay, FP, Concentration 0.02 uM, % competition
[7] = read-out: Result Value (Result Type % Inhibition), BCL-b/TR3, Table 7, NCI Mechanistic library, Binding Assay, FP, Concentration 0.02 uM
[8] = read-out: Result Value (Result Type % Inhibition), BCL-b/TR3, Table 8, NCI Structural library, Binding Assay, FP, Concentration 0.02 uM
[9] = read-out: Result Value (% Inhibition)

SMILES | F Ratio [1] | Is Hit [1] | inhibition at 0.02 µM [2] | F Ratio [3] | Is Hit [3] | also measured
O=S(=O)(O)c1cc(/N=[N+](\[O-])c2cc(S(=O)(=O)O)c3ccccc3c2)cc2ccccc12 [Compound 37031] | 0.4022 | Yes | 84.6% | – | – | –
COC(=O)c1ccc(O)c2nc3c(C=O)c(O)cc(O)c3nc12 [Compound 106995] | – | – | 98.9% | 0.08027 | Yes | –
CN(N=O)c1ccc(O)c(O)c1 [M 9440] | – | – | – | – | – | Is Hit [4]: Yes; F Ratio [5]: 0.08483; inhibition at 0.02 µM [6]: 121%
CN(N=O)c1cc(O)ccc1O [D 8065] | – | – | – | – | – | Is Hit [4]: Yes; F Ratio [5]: 0.1152; inhibition at 0.02 µM [6]: 95.3%
O=C1OC(c2ccccc2)=N/C1=C\c1ccc(N(CCCl)CCCl)cc1 [Compound 104117] | – | – | 62.8% | 1.2733 | Yes | –
O=S(=O)(O)c1cc(/N=N/c2cc(S(=O)(=O)O)c3ccccc3c2O)ccc1/C=C/c1ccc(/N=N/c2cc(S(=O)(=O)O)c3ccccc3c2O)cc1S(=O)(=O)O [Compound 34931] | – | – | 80.3% | 0.0509 | Yes | –
O=S(=O)(O)c1ccc2cc(/N=N/c3cc(S(=O)(=O)O)c4cccnc4c3O)ccc2c1 [Compound 87677] | 0.3822 | Yes | 66.1% | – | – | –
Nc1ccc(/N=N/c2ccc(-c3ccc(O)cc3)cc2)c2ccc(S(=O)(=O)O)cc12 [Compound 65528] | 0.1609 | Yes | 71.6% | – | – | –
Nc1ccc2c(c1)CN1C(=O)c3ccccc3C1=N2 [Compound 320846] | – | – | – | 1.4904 | Yes | inhibition at 0.02 µM [7]: 60.7%
Cc1ccc(/N=N/c2c(O)c(S(=O)(=O)O)cc3cc(S(=O)(=O)O)ccc23)c(C)c1 [Compound 10455] | – | – | 50.7% | – | – | F Ratio: 0.4406; Is Hit: Yes
Cc1cc2c(c3oc(C4OC4C4OC4C)cc(=O)c13)C(=O)c1c(O)c(C3CC(C)(N(C)C)C(O)C(C)O3)cc(C3CC(N(C)C)C(O)C(C)O3)c1C2=O (stereo not drawn) [Compound 70929] | – | – | – | 0.1099 | Yes | inhibition at 0.02 µM [7]: 105%
O=S(=O)(O)c1ccc2c(/N=N/c3cccc4ccccc34)c(O)c(S(=O)(=O)O)cc2c1 [Compound 45583] | 0.1069 | Yes | 84.6% | – | – | –
CC[n+]1c(-c2ccccc2)c2cc(N)ccc2c2ccc(N)cc21 [Compound 268986] | – | – | – | 0.3849 | Yes | inhibition at 0.02 µM [7]: 149%
O=C1C(Cl)=C(Sc2nnc3c4ccccc4c4ccccc4c3n2)C(=O)c2ccccc21 [Compound 327705] | 0.2306 | Yes | – | – | – | inhibition at 0.02 µM [8]: 56.3%
C[C@H](Cc1ccc(O)c(O)c1)[C@@H](C)Cc1ccc(O)c(O)c1 [N 5023] | – | – | – | – | – | Is Hit [4]: Yes; F Ratio [5]: 0.09564; inhibition at 0.02 µM [9]: 67.5%
CC(=O)O.CCN(CC)CC[n+]1ccc2c(C)c3[nH]c4ccc(O)cc4c3c(C)c2c1 [Compound 311152] | 0.7711 | Yes | 128% | – | – | –
CCN(CCO)CCNc1ccc(C)c2sc3ccccc3c(=O)c12 [Compound 20534] | – | – | 74.4% | 0.6411 | Yes | –
[O-][n+]1c2c([n+]([O-])c3ccccc31)-c1cccc3cccc-2c13 [Compound 60309] | – | – | 72.3% | 1.4371 | Yes | –
C[n+]1c(/C=C/c2ccc(O)c3ncccc23)[se]c2ccccc21 [Compound 86374] | 0.09444 | Yes | – | – | – | inhibition at 0.02 µM [8]: 61.4%
COc1cc(-c2[o+]c3cc(O)cc(O)c3cc2O)cc(O)c1O.O=C(O)c1ccccc1 [Compound 114885] | 0.08249 | Yes | – | – | – | inhibition at 0.02 µM [8]: 108%
O=C(O)C1=CC(=C(c2ccc(O)c(C(=O)O)c2)c2ccc(O)c(C(=O)O)c2)C=CC1=O [A 1895] | – | – | – | – | – | Is Hit [4]: Yes; F Ratio [5]: 0.07629; inhibition at 0.02 µM [9]: 107%
Cc1cc(C(=C2C=CC(=N)C=C2)c2ccc(N)cc2)ccc1N [Compound 93739] | – | – | 78.6% | – | – | –
Cc1nc(/N=N\c2cc(S(=O)(=O)O)c3cc([N+](=O)[O-])cc(S(=O)(=O)O)c3c2)c(COP(=O)(O)O)c(C=O)c1O [P 2738] | – | – | – | – | – | Is Hit [4]: Yes; F Ratio [5]: 0.2636; inhibition at 0.02 µM [9]: 66.6%
O=c1cc(O)cc(/C=C/c2ccc(O)c(O)c2)o1 [H 5257] | – | – | – | – | – | Is Hit [4]: Yes; F Ratio [5]: 0.0971; inhibition at 0.02 µM [9]: 77%
CN1CCN(c2ccc3nc(-c4ccc5[nH]c(-c6ccc(O)cc6)nc5c4)[nH]c3c2)CC1 [Compound 322921] | – | – | – | – | – | inhibition at 0.02 µM [8]: 71.6%
O=[N+]([O-])c1ccc2c(/N=N/c3c(O)ccc4ccccc34)c(O)cc(S(=O)(=O)O)c2c1 [Compound 73413] | – | – | 125% | 0.05947 | Yes | –
CN(C)C1C(O)=C(C(=O)NCN2CCCC2)C(=O)C2(O)C(O)=C3C(=O)c4c(O)cccc4C(C)(O)C3CC12 (stereo not drawn) [Compound 50352] | 0.2153 | Yes | – | – | – | inhibition at 0.02 µM [8]: 122%
O=[N+]([O-])c1cccc2c(/N=N/c3ccc4ccccc4c3O)c(O)cc(S(=O)(=O)O)c12 [Compound 85561] | – | – | 141% | 0.06489 | Yes | –
c1ccc2c(NCCCCCCCCNc3c4ccccc4nc4ccccc34)c3ccccc3nc2c1 [Compound 219734] | – | – | – | 0.2008 | Yes | Result Value (Result Type % Inhibition), BCL-b/TR3 [3]: 53.437%

Continued, in another order:

F Ratio [1] | Is Hit [1] | inhibition at 0.02 µM [2] | F Ratio [3] | Is Hit [3] | SMILES | also measured
0.6261 | Yes | 61.8% | – | – | Ic1ccc2c(c1)N(c1ccccc1)c1cc(Nc3ccc4nc5ccc(I)cc5[n+](-c5ccccc5)c4c3)ccc1N2 [Compound 402959] | –
0.1552 | Yes | 123% | – | – | CCc1c(O)c2c(c(O)c1C(C)=O)C(=O)c1c(cc(O)c(C(=O)O)c1C(=O)O)C2=O [Compound 170005] | –
0.1869 | Yes | 82.8% | – | – | Oc1cc(O)c2c(c1)OC(c1ccc(O)c(O)c1)C(OC1(c3cc(O)c(O)c(O)c3)Oc3cc(O)cc(O)c3C(O)C1O)C2 (stereo not drawn) [Compound 143101] | –
1.1364 | Yes | 73.4% | – | – | O=[N+]([O-])c1ccc(S(=O)(=O)Cc2ccccc2)c2nonc12 [Compound 228148] | –
0.4053 | Yes | 163% | – | – | Nc1c(S(=O)(=O)O)cc(Nc2cccc(S(N)(=O)=O)c2)c2c1C(=O)c1ccccc1C2=O [Compound 117079] | –
0.9929 | Yes | 166% | – | – | CNc1ccc(Nc2ccc(S(=O)(=O)O)cc2)c2c1C(=O)c1ccccc1C2=O [Compound 128437] | –
– | – | 51.9% | 0.439 | Yes | N=C(N)NCCCS(=O)(=O)Nc1ccc(Nc2c3ccccc3nc3cc([N+](=O)[O-])ccc23)cc1 [Compound 177365] | –
0.2439 | Yes | 123% | – | – | Nc1ccc(-c2ccc(Nc3cc(S(=O)(=O)O)c(N)c4c3C(=O)c3ccccc3C4=O)cc2)c(S(=O)(=O)O)c1 [Compound 125910] | –
0.07992 | Yes | 123% | – | – | O=C(O)/C=C/c1c2ccc(=O)c(O)c-2oc2c(O)c(O)ccc12 [Compound 119911] | –
– | – | – | – | Yes | O=C1C(Br)=C(N2CCN(CCOCCO)CC2)C(=O)c2c(O)ccc(O)c21 [Compound 659999] | –
– | – | 94% | 0.04471 | Yes | O=S(=O)(O)c1cc(/N=N/c2cc(S(=O)(=O)O)c3cccnc3c2O)ccc1/C=C/c1ccc(/N=N/c2cc(S(=O)(=O)O)c3cccnc3c2O)cc1S(=O)(=O)O [Compound 635352] | –
– | – | 82.6% | 0.1433 | Yes | CN(C)CCc1c2c(nc3ccccc13)C(=O)c1cccnc1C2=O [Compound 680734] | –
0.9351 | Yes | 50.3% | – | – | CN(C)S(=O)(=O)c1ccc(Nc2ccc(O)c3c2C(=O)c2c([N+](=O)[O-])ccc(O)c2C3=O)cc1 [Compound 117949] | –
0.5232 | Yes | 138% | – | – | COc1cccc2c1C(=N)c1c(O)c3c(c(O)c1C2=O)C[C@@](O)(C(C)=O)C[C@@H]3OC1CC(N)C(O)C(C)O1 (stereo partly drawn) [Compound 254681] | –
1.4788 | Yes | 68.6% | – | – | Nc1nc(Sc2ccc([N+](=O)[O-])c3nonc23)c2nc[nH]c2n1 [Compound 348401] | –
– | – | 60.6% | 0.1793 | Yes | CN(C)c1ccc(/C=c2\c3n(c4ccccc24)N(C)C(c2ccc(Cl)cc2)C=3)cc1.O=S(=O)(O)C(F)(F)F (stereo not drawn) [Compound 699479] | –
0.1606 | Yes | 84.6% | – | – | Oc1cc(O)c2c(c1)OC(c1ccc(O)c(O)c1)C(O)C2c1c(O)cc(O)c2c1OC(c1ccc(O)c(O)c1)C(O)C2 (stereo not drawn) [Compound 143099] | –
